Measurements from patent US20230111310A1, “CARBOXYLIC ACID DERIVATIVE-SUBSTITUTED IMINO ARYL COMPOUND, PREPARATION METHOD THEREFOR, HERBICIDAL COMPOSITION AND USE THEREOF” (Qingdao Kingagroot Chemical Compound Co., Ltd., priority 2020, published 2023).

Columns and labels:
Assay in all cases: Weeding effect in post-emergence stage
Assay type in all cases: in vivo
Conditions in all cases: Dose 15 g/ha; level of fresh weight growth control rate
Eleusine indica = tested on: Eleusine indica
Method in brief: (§1)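 Compound, dissolved in acetone and diluted in water with Tween 80 plus methyl oleate EC (1.5 liter/ha), is sprayed onto 2-3 leaf potted plants. Rates span 7.5–500 g/ha. After 3 weeks of greenhouse culture, weeding effect is counted as the mean of triplicates.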

Abutilon theophrasti = tested on: Abutilon theophrasti
Method in brief: as §1

Setaria viridis = tested on: Setaria viridis
Method in brief: as §1

Alopecurus japonicus = tested on: Alopecurus japonicus
Method in brief: as §1

Digitaria sanguinalis = tested on: Digitaria sanguinalis
Method in brief: as §1

Echinochloa crusgalli = tested on: Echinochloa crusgalli
Method in brief: as §1

In the case of `C[C@@H](O/N=C/c1cc(-n2c(=O)cc(C(F)(F)F)n(C)c2=O)c(F)cc1Cl)C(=O)OC(C)(C)C` [202(R)], the “Weeding effect in post-emergence stage, Eleusine indica” value (from here on “Weeding effect … Eleusine indica”) (Eleusine indica) is reported as 5 (Level 5: growth control rate is above 85%), the “Weeding effect in post-emergence stage, Abutilon theophrasti” value (shortened to “Weeding effect … Abutilon theophrasti”) (Abutilon theophrasti) is reported as 5 (Level 5: growth control rate is above 85%) and the “Weeding effect in post-emergence stage, Setaria viridis” value (“Weeding effect … Setaria viridis” for short) (Setaria viridis) is reported as 5 (Level 5: growth control rate is above 85%). For the same molecule, the “Weeding effect in post-emergence stage, Alopecurus japonicus” value (shortened to “Weeding effect … Alopecurus japonicus”) (Alopecurus japonicus) was 5 (Level 5: growth control rate is above 85%), the “Weeding effect in post-emergence stage, Digitaria sanguinalis” value (“Weeding effect … Digitaria sanguinalis” for short) (Digitaria sanguinalis) was 5 (Level 5: growth control rate is above 85%) and the “Weeding effect in post-emergence stage, Echinochloa crusgalli” value (“Weeding effect … Echinochloa crusgalli” for short) (Echinochloa crusgalli) was 5 (Level 5: growth control rate is above 85%).

For `CCCCCOC(=O)[C@@H](C)O/N=C/c1cc(-n2c(=O)cc(C(F)(F)F)n(C)c2=O)c(F)cc1Cl` [203(R)], the “Weeding effect … Eleusine indica” value (Eleusine indica) was 5 (Level 5: growth control rate is above 85%), the “Weeding effect … Abutilon theophrasti” value (Abutilon theophrasti) was 5 (Level 5: growth control rate is above 85%) and the “Weeding effect … Setaria viridis” value (Setaria viridis) was 5 (Level 5: growth control rate is above 85%). The “Weeding effect … Alopecurus japonicus” value (Alopecurus japonicus) was 5 (Level 5: growth control rate is above 85%), the “Weeding effect … Digitaria sanguinalis” value (Digitaria sanguinalis) was 5 (Level 5: growth control rate is above 85%) and the “Weeding effect … Echinochloa crusgalli” value (Echinochloa crusgalli) was 5 (Level 5: growth control rate is above 85%).

For `CCCCCCOC(=O)[C@@H](C)O/N=C/c1cc(-n2c(=O)cc(C(F)(F)F)n(C)c2=O)c(F)cc1Cl` [204(R)], the “Weeding effect … Eleusine indica” value (Eleusine indica) was 5 (Level 5: growth control rate is above 85%), the “Weeding effect … Abutilon theophrasti” value (Abutilon theophrasti) was 5 (Level 5: growth control rate is above 85%) and the “Weeding effect … Setaria viridis” value (Setaria viridis) was 5 (Level 5: growth control rate is above 85%). For the same molecule, the “Weeding effect … Alopecurus japonicus” value (Alopecurus japonicus) was 5 (Level 5: growth control rate is above 85%), the “Weeding effect … Digitaria sanguinalis” value (Digitaria sanguinalis) was 5 (Level 5: growth control rate is above 85%) and the “Weeding effect … Echinochloa crusgalli” value (Echinochloa crusgalli) was 5 (Level 5: growth control rate is above 85%).

`CCCCCCCOC(=O)[C@@H](C)O/N=C/c1cc(-n2c(=O)cc(C(F)(F)F)n(C)c2=O)c(F)cc1Cl` [205(R)] was tested, and the “Weeding effect … Eleusine indica” value (Eleusine indica) was 5 (Level 5: growth control rate is above 85%), the “Weeding effect … Abutilon theophrasti” value (Abutilon theophrasti) was 5 (Level 5: growth control rate is above 85%) and the “Weeding effect … Setaria viridis” value (Setaria viridis) was 5 (Level 5: growth control rate is above 85%). The “Weeding effect … Alopecurus japonicus” value (Alopecurus japonicus) was 5 (Level 5: growth control rate is above 85%), the “Weeding effect … Digitaria sanguinalis” value (Digitaria sanguinalis) was 5 (Level 5: growth control rate is above 85%) and the “Weeding effect … Echinochloa crusgalli” value (Echinochloa crusgalli) was 5 (Level 5: growth control rate is above 85%).

For `CCCCCCCCOC(=O)[C@@H](C)O/N=C/c1cc(-n2c(=O)cc(C(F)(F)F)n(C)c2=O)c(F)cc1Cl` [206(R)], the “Weeding effect … Eleusine indica” value (Eleusine indica) was 5 (Level 5: growth control rate is above 85%), the “Weeding effect … Abutilon theophrasti” value (Abutilon theophrasti) was 5 (Level 5: growth control rate is above 85%) and the “Weeding effect … Setaria viridis” value (Setaria viridis) was 5 (Level 5: growth control rate is above 85%). The “Weeding effect … Alopecurus japonicus” value (Alopecurus japonicus) was 5 (Level 5: growth control rate is above 85%), the “Weeding effect … Digitaria sanguinalis” value (Digitaria sanguinalis) was 5 (Level 5: growth control rate is above 85%) and the “Weeding effect … Echinochloa crusgalli” value (Echinochloa crusgalli) was 5 (Level 5: growth control rate is above 85%).

For `CCCCCCC(C)OC(=O)[C@@H](C)O/N=C/c1cc(-n2c(=O)cc(C(F)(F)F)n(C)c2=O)c(F)cc1Cl` (stereo partly drawn) [207(R)], the “Weeding effect … Eleusine indica” value (Eleusine indica) was 5 (Level 5: growth control rate is above 85%), the “Weeding effect … Abutilon theophrasti” value (Abutilon theophrasti) was 5 (Level 5: growth control rate is above 85%) and the “Weeding effect … Setaria viridis” value (Setaria viridis) was 5 (Level 5: growth control rate is above 85%). The “Weeding effect … Alopecurus japonicus” value (Alopecurus japonicus) was 5 (Level 5: growth control rate is above 85%), the “Weeding effect … Digitaria sanguinalis” value (Digitaria sanguinalis) was 5 (Level 5: growth control rate is above 85%) and the “Weeding effect … Echinochloa crusgalli” value (Echinochloa crusgalli) was 5 (Level 5: growth control rate is above 85%).

For `C=CCCOC(=O)[C@@H](C)O/N=C/c1cc(-n2c(=O)cc(C(F)(F)F)n(C)c2=O)c(F)cc1Cl` [209(R)], the “Weeding effect … Eleusine indica” value (Eleusine indica) was 5 (Level 5: growth control rate is above 85%), the “Weeding effect … Abutilon theophrasti” value (Abutilon theophrasti) was 5 (Level 5: growth control rate is above 85%) and the “Weeding effect … Setaria viridis” value (Setaria viridis) was 5 (Level 5: growth control rate is above 85%). The “Weeding effect … Alopecurus japonicus” value (Alopecurus japonicus) was 5 (Level 5: growth control rate is above 85%), the “Weeding effect … Digitaria sanguinalis” value (Digitaria sanguinalis) was 5 (Level 5: growth control rate is above 85%) and the “Weeding effect … Echinochloa crusgalli” value (Echinochloa crusgalli) was 5 (Level 5: growth control rate is above 85%).

`C[C@@H](O/N=C/c1cc(-n2c(=O)cc(C(F)(F)F)n(C)c2=O)c(F)cc1Cl)C(=O)OC1CCCC1` [214(R)] was tested, and the “Weeding effect … Eleusine indica” value (Eleusine indica) was 5 (Level 5: growth control rate is above 85%), the “Weeding effect … Abutilon theophrasti” value (Abutilon theophrasti) was 5 (Level 5: growth control rate is above 85%) and the “Weeding effect … Setaria viridis” value (Setaria viridis) was 5 (Level 5: growth control rate is above 85%). For the same molecule, the “Weeding effect … Alopecurus japonicus” value (Alopecurus japonicus) was 5 (Level 5: growth control rate is above 85%), the “Weeding effect … Digitaria sanguinalis” value (Digitaria sanguinalis) was 5 (Level 5: growth control rate is above 85%) and the “Weeding effect … Echinochloa crusgalli” value (Echinochloa crusgalli) was 5 (Level 5: growth control rate is above 85%).

In the case of `C[C@@H](O/N=C/c1cc(-n2c(=O)cc(C(F)(F)F)n(C)c2=O)c(F)cc1Cl)C(=O)OCC(F)F` [217(R)], the “Weeding effect … Eleusine indica” value (Eleusine indica) is reported as 5 (Level 5: growth control rate is above 85%), the “Weeding effect … Abutilon theophrasti” value (Abutilon theophrasti) is reported as 5 (Level 5: growth control rate is above 85%) and the “Weeding effect … Setaria viridis” value (Setaria viridis) is reported as 5 (Level 5: growth control rate is above 85%). For the same molecule, the “Weeding effect … Alopecurus japonicus” value (Alopecurus japonicus) was 5 (Level 5: growth control rate is above 85%), the “Weeding effect … Digitaria sanguinalis” value (Digitaria sanguinalis) was 5 (Level 5: growth control rate is above 85%) and the “Weeding effect … Echinochloa crusgalli” value (Echinochloa crusgalli) was 5 (Level 5: growth control rate is above 85%).

With `C[C@@H](O/N=C/c1cc(-n2c(=O)cc(C(F)(F)F)n(C)c2=O)c(F)cc1Cl)C(=O)OCC(C)(F)F` [220(R)] the “Weeding effect … Eleusine indica” value (Eleusine indica) was 5 (Level 5: growth control rate is above 85%), the “Weeding effect … Abutilon theophrasti” value (Abutilon theophrasti) was 5 (Level 5: growth control rate is above 85%) and the “Weeding effect … Setaria viridis” value (Setaria viridis) was 5 (Level 5: growth control rate is above 85%). For the same molecule, the “Weeding effect … Alopecurus japonicus” value (Alopecurus japonicus) was 5 (Level 5: growth control rate is above 85%), the “Weeding effect … Digitaria sanguinalis” value (Digitaria sanguinalis) was 5 (Level 5: growth control rate is above 85%) and the “Weeding effect … Echinochloa crusgalli” value (Echinochloa crusgalli) was 5 (Level 5: growth control rate is above 85%).

For `C[C@@H](O/N=C/c1cc(-n2c(=O)cc(C(F)(F)F)n(C)c2=O)c(F)cc1Cl)C(=O)OCCC(F)(F)F` [221(R)], the “Weeding effect … Eleusine indica” value (Eleusine indica) was 5 (Level 5: growth control rate is above 85%), the “Weeding effect … Abutilon theophrasti” value (Abutilon theophrasti) was 5 (Level 5: growth control rate is above 85%) and the “Weeding effect … Setaria viridis” value (Setaria viridis) was 5 (Level 5: growth control rate is above 85%). The “Weeding effect … Alopecurus japonicus” value (Alopecurus japonicus) was 5 (Level 5: growth control rate is above 85%), the “Weeding effect … Digitaria sanguinalis” value (Digitaria sanguinalis) was 5 (Level 5: growth control rate is above 85%) and the “Weeding effect … Echinochloa crusgalli” value (Echinochloa crusgalli) was 5 (Level 5: growth control rate is above 85%).
